The text below walks through data of PubChem BioAssay (NCI).

Test systems include SF-539 CNS; MDA-MB-435; NCI-H23 lung; LOX IMVI melanoma; OVCAR-4 ovarian; TK-10 renal; A549 NSCLC; KM12 colon.
Common to all, as to test: NCI tumour cell line growth inhibition, 48 h

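Where inhibition never reached the appropriate level, the endpoint shown equals the highest concentration tested. Otherwise, values were interpolated linearly from a five-concentration, 48-hour dose response in 96-well plates. GI50 = concentration required for 50% inhibition of growth. TGI is the concentration that stops growth completely.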

As to `Cc1ccc(C2=C(Cl)C(=O)C(c3ccc(C)cc3)=C(Cl)C2=O)cc1`, the TGI with SF-539 CNS, with MDA-MB-435, in the assay with NCI-H23 lung, in the assay with LOX IMVI melanoma, in the assay with OVCAR-4 ovarian and in the assay with TK-10 renal was greater than 100 µM each time. Moreover, the TGI in the assay with A549 NSCLC and with KM12 colon was greater than 100 µM in each case.

As for `CC1=C(CNO)C2=C(C)C3(CC3)[C@@](C)(O)C(=O)C2=C1`, the GI50 was 1.64 µM in the assay on SF-539 CNS; 11.4 µM in the assay on MDA-MB-435; 0.473 µM with NCI-H23 lung; 3.44 µM in the assay on LOX IMVI melanoma; 2.1 µM in the assay on OVCAR-4 ovarian; 3.24 µM with TK-10 renal. Further, the GI50 in the assay on A549 NSCLC was 1.17 µM; in the assay on KM12 colon, 3.72 µM. Besides, the TGI in the assay on SF-539 CNS was found to be 5.03 µM; with MDA-MB-435, 39 µM; in the assay with NCI-H23 lung it was 2.72 µM; in the assay with LOX IMVI melanoma, 19 µM; in the assay with OVCAR-4 ovarian, 7.06 µM; in the assay on TK-10 renal it was 8.4 µM. The TGI in the assay on A549 NSCLC was 17.6 µM; with KM12 colon it was 27.4 µM.

In the case of `CC1(C)CC[C@]2(C(=O)O)CC[C@]3(C)C(=CC[C@@H]4[C@@]5(C)C/C(=C/c6ccco6)C(=O)C(C)(C)[C@@H]5CC[C@]43C)[C@@H]2C1`, the GI50 in the assay on SF-539 CNS was 3.34 µM; in the assay on MDA-MB-435, 3.63 µM; in the assay with NCI-H23 lung, 3.13 µM; in the assay with LOX IMVI melanoma it was 2.46 µM; in the assay with OVCAR-4 ovarian, 3.76 µM; in the assay with TK-10 renal it was 6.11 µM. Further, the results for the GI50 in the assay with A549 NSCLC and in the assay with KM12 colon were 2.6 µM and 2.77 µM, respectively. Also, the TGI with SF-539 CNS is 11.6 µM; in the assay on MDA-MB-435, 14.1 µM; in the assay with NCI-H23 lung it was 17.6 µM; with LOX IMVI melanoma it was 6.77 µM; with OVCAR-4 ovarian, 41.1 µM; in the assay on TK-10 renal, 89.8 µM. Also, the TGI in the assay with A549 NSCLC is 23.5 µM; in the assay on KM12 colon, 11.6 µM.

Take `OCC#Cc1ccccc1C#Cc1ccc(C#Cc2ccccc2)cc1`: the GI50 in the assay on SF-539 CNS was 21.4 µM; in the assay on MDA-MB-435, 21 µM; in the assay on NCI-H23 lung, 18.2 µM; in the assay on LOX IMVI melanoma, 24.6 µM; in the assay with OVCAR-4 ovarian, 20.4 µM; in the assay with TK-10 renal it was 13 µM. Moreover, the GI50 is 15.3 µM with A549 NSCLC and 17.3 µM in the assay with KM12 colon. For the same compound, the TGI in the assay on SF-539 CNS was 45.6 µM; in the assay on MDA-MB-435 it was 49.5 µM; in the assay with NCI-H23 lung, 37 µM; in the assay on LOX IMVI melanoma it was greater than 100 µM; in the assay with OVCAR-4 ovarian it was greater than 100 µM; in the assay with TK-10 renal, 32.9 µM. In addition, the TGI turned out to be 33.3 µM in the assay on A549 NSCLC and 34.3 µM with KM12 colon.

In the case of `O=C1CCS/C(=N/S(=O)(=O)c2ccc(N3N=C4c5ccccc5CC4C3c3cccs3)cc2)N1Cc1ccccc1` (stereo unspecified), the GI50 is 21.8 µM in the assay with SF-539 CNS; 21.1 µM in the assay on MDA-MB-435; 16.7 µM in the assay on NCI-H23 lung; 13.6 µM in the assay with LOX IMVI melanoma; 49.3 µM in the assay on OVCAR-4 ovarian; 17.7 µM in the assay on TK-10 renal. In addition, the GI50 in the assay on A549 NSCLC is 14.4 µM; in the assay with KM12 colon, 17.1 µM. Further, the TGI with SF-539 CNS is 44.4 µM; in the assay on MDA-MB-435, 44.6 µM; in the assay on NCI-H23 lung it was 31.8 µM; with LOX IMVI melanoma it was 27.2 µM; in the assay with OVCAR-4 ovarian it was greater than 100 µM; with TK-10 renal it was 37.6 µM. The TGI with A549 NSCLC amounted to 35.8 µM; with KM12 colon, 41 µM.

With `C=C1CC/C=C(\C)CC[C@H](C(=C)C)[C@@H](O)/C=C(/CO)CCC1O` (stereo partly specified), the GI50 in the assay on SF-539 CNS was greater than 100 µM; in the assay on MDA-MB-435, 40.5 µM; with NCI-H23 lung, 80.6 µM; in the assay on LOX IMVI melanoma, 50.4 µM; in the assay with OVCAR-4 ovarian it was greater than 100 µM; in the assay on TK-10 renal, 17.4 µM. Besides, the results for the GI50 in the assay with A549 NSCLC and in the assay with KM12 colon were 74.4 µM and 4.58 µM, respectively. Moreover, the TGI in the assay with SF-539 CNS was greater than 100 µM; in the assay on MDA-MB-435, greater than 100 µM; in the assay on NCI-H23 lung, greater than 100 µM; with LOX IMVI melanoma it was greater than 100 µM; in the assay on OVCAR-4 ovarian, greater than 100 µM; in the assay with TK-10 renal it was 68.7 µM. Also, the TGI in the assay with A549 NSCLC and in the assay with KM12 colon was greater than 100 µM in each case.

For `COc1ccc(-c2cc(-c3ccccc3)nc(NCCNc3ccnc4cc(Cl)ccc34)n2)cc1`, the GI50 in the assay on SF-539 CNS was 1.86 µM; in the assay on MDA-MB-435, 1.47 µM; in the assay with NCI-H23 lung, 1.84 µM; in the assay with LOX IMVI melanoma it was 1.55 µM; in the assay on OVCAR-4 ovarian, 1.93 µM; in the assay on TK-10 renal, 1.82 µM. Further, the GI50 with A549 NSCLC is 1.82 µM; in the assay with KM12 colon, 1.84 µM. Also, the TGI was determined as 3.33 µM in the assay on SF-539 CNS; 3.01 µM in the assay with MDA-MB-435; 3.7 µM with NCI-H23 lung; 3.26 µM in the assay with LOX IMVI melanoma; 3.71 µM in the assay on OVCAR-4 ovarian; 3.44 µM in the assay on TK-10 renal. The TGI was 3.55 µM in the assay with A549 NSCLC and 3.52 µM with KM12 colon.

In the case of `CC1=C2[C@@H](CC1)[C@]1(C)O[C@@](C3CC3)(C[C@H]1OC(=O)CO)[C@H]2OC(=O)/C=C/c1ccccc1`, the GI50 in the assay on SF-539 CNS is 16.6 µM; with MDA-MB-435 it was 16.1 µM; with NCI-H23 lung it was 16.6 µM; in the assay with LOX IMVI melanoma it was 15.1 µM; with OVCAR-4 ovarian it was 14.5 µM; with TK-10 renal, 18.7 µM. In addition, the GI50 was 13.2 µM in the assay with A549 NSCLC and 16.6 µM in the assay on KM12 colon. In addition, the TGI came out at 31.6 µM with SF-539 CNS; 30.6 µM with MDA-MB-435; 36 µM in the assay with NCI-H23 lung; 31.8 µM in the assay on LOX IMVI melanoma; 29.2 µM in the assay with OVCAR-4 ovarian; 33.8 µM in the assay with TK-10 renal. For the same compound, the figures for the TGI in the assay with A549 NSCLC and in the assay on KM12 colon were 27.3 µM and 32.3 µM, respectively.

`COc1cc(/C=C2\C(=O)N(C)c3ccccc32)cc(OC)c1OC`: the GI50 with SF-539 CNS was 19.7 µM; in the assay on MDA-MB-435, 5.02 µM; with NCI-H23 lung, 21.2 µM; in the assay with LOX IMVI melanoma it was 11.1 µM; in the assay with OVCAR-4 ovarian, 18.6 µM; with TK-10 renal it was 31.1 µM. For the same compound, the GI50 is 26.3 µM in the assay with A549 NSCLC and 11.2 µM in the assay with KM12 colon. For the same compound, the TGI in the assay on SF-539 CNS is greater than 100 µM; in the assay with MDA-MB-435, 45.4 µM; in the assay with NCI-H23 lung it was 73.1 µM; in the assay with LOX IMVI melanoma, 26.7 µM; in the assay on OVCAR-4 ovarian, greater than 100 µM; with TK-10 renal, greater than 100 µM. Moreover, the results for the TGI with A549 NSCLC and in the assay on KM12 colon were greater than 100 µM and 30.1 µM, respectively.
